Where two headings read alike, the source gives them in different places. Bridge positions count the residues as written; N and C are the ends. Square brackets hold non-standard residues; d marks the D form. Peptide text beside a SMILES is read from it. * marks the point of attachment. Trp(6-Cl) = N[C@@H](Cc1c[nH]c2cc(Cl)ccc12)C(=O)O; hArg = N=C(N)NCCCC[C@H](N)C(=O)O; Pentanoyl = CCCCC(=O)*
Tests used:
[1] = system: His-EGF(A)-Fc; experiment: His-EGF(A)-Fc TR-FRET counterscreen
[2] = molecular target: T1, PCSK9Δhelix (Homo sapiens, UniProt Q8NBP7); experiment: PCSK9Δhelix/Ab20 TR-FRET binding assay; settings: for IC50: TR-FRET, read-out: PCSK9Δhelix/Ab20 IC50
T1 construct: Human PCSK9 construct M1-Q692 with an engineered TEV site (residue deletion Y166, R167); made in house; host or cells: CHO
Protocol: (§1) The former was based on a TF-FRET assay to measure the association of the EGF(A) domain of the LDLR to PCSK9 (“PCSK9/EGF(A) binding assay”) whilst the latter was based on a TR-FRET assay to measure binding of Ab20 to PCSK9Δhelix (“PCSK9Δhelix/Ab20 binding assay”).
(§2) The ability of compounds to inhibit binding to PCSK9 was evaluated with a panel of time-resolved fluorescence resonance energy transfer (TR-FRET) binding assays. […] The PCSK9Δhelix/Ab20 binding assay evaluated the ability of compounds to compete with Ab20 for binding to the N-terminal groove region in a His-tagged, PCSK9Δhelix construct. […] Signal generation in the PCSK9 binding assays was dependent upon the binding interaction to bring into close proximity the His-tag on the PCSK9 and the Fc-tag on the ligand. Anti-His-APC was bound to the His-tag, and anti-Fc-europium was bound to the Fc-tag. When these two antibodies were in close proximity and were irradiated with light at 340 nm, the europium was excited and emitted energy at 615 nm. This energy was taken up by the APC and was emitted as light at 665 nm. Compounds that competed with the ligand reduced the energy transfer and thus the emission at 665 nm. In the His-EGFA-Fc molecule in the counterscreen, the two tags were always in close proximity, thus any reduction in emission at 665 nm was due to interference with the detection system.
(§3) Compounds were solubilized and dilutions were prepared in DMSO. […] The plate was centrifuged to mix the well contents and allowed to incubate for 30 min. […] The TR-FRET signal was read on a ViewLux reader (PerkinElmer) with excitation at 340 nm and emission at 615 and 665 nm with a 50-μs time delay between excitation and measurement of emission. The TR-FRET ratio was calculated as the fluorescence emission at 665 nm divided by the fluorescence emission at 615 nm. The normalized TR-FRET ratios were plotted as a function of the compound concentrations, and the IC50 values were determined using a 4-parameter logistic regression.
(§4) In black 1536-well assay plates (MaKO, Aurora® Microplates, Whitefish, Mont.), 40 nL of peptide in DMSO were preincubated with 2 μL His-tagged PCSK9 plus anti-His-allophycocyanin in assay buffer (50 mM Tris-HCl, pH 7.5, 150 mM NaCl, 2 mM CaCl2, 0.01% Tween®-20, 0.1% bovine gamma globulins, and protease inhibitor cocktail) for 30 min. Then 2 μL of Fc-tagged ligand and anti-Fc-europium in assay buffer were added and allowed to incubate for 2 h.

[3] = molecular target: PCSK9 (Homo sapiens, UniProt Q8NBP7); experiment: PCSK9/EGF(A) TR-FRET binding assay; settings: for IC50: TR-FRET, read-out: PCSK9/EGF(A) IC50
Protocol: as §1, §2, §3, §4

[4] = TR-FRET counterscreen, Table 8E, additional compounds
[5] = TR-FRET counterscreen, Table 8D, * = some inhibition at highest concentrations, not sufficient to fit an IC50
[6] = Table 8D, disulfide-cyclized extension peptides

T1 sequence (Q8NBP7 with tags, fused parts or gaps limits assumed): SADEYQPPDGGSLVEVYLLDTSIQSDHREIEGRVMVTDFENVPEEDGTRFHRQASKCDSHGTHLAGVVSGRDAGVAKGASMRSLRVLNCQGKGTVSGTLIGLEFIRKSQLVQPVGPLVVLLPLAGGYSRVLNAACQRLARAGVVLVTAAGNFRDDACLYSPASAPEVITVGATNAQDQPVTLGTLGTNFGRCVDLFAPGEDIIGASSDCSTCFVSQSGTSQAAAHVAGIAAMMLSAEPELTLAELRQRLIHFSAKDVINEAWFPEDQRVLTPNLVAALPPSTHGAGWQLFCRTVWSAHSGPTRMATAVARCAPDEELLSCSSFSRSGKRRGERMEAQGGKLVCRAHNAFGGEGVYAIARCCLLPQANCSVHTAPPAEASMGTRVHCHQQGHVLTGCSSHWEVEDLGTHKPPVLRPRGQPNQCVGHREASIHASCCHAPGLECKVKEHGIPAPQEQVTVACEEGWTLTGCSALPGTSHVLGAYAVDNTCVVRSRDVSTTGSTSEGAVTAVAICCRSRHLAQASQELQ
T1 sequence (Q8NBP7 31-152 partner limits assumed): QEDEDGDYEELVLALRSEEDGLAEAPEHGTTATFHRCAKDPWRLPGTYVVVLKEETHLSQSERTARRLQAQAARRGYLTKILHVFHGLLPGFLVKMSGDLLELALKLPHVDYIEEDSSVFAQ
PCSK9, sequence (Q8NBP7 153-692): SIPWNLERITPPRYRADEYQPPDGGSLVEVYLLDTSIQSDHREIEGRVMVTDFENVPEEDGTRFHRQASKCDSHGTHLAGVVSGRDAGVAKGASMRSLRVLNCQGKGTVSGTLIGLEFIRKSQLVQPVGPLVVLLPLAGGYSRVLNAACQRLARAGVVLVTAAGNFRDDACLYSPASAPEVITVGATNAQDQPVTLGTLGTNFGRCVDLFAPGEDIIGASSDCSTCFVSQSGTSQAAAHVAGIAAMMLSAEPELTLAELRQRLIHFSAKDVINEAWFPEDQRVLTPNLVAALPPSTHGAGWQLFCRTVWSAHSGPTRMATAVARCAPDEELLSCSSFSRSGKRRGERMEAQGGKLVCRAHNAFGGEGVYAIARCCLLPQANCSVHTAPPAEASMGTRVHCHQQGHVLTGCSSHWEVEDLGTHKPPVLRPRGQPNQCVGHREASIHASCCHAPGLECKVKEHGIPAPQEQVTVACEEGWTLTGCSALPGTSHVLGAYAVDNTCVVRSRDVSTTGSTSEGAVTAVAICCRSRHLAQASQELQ
PCSK9, sequence (Q8NBP7 31-152 partner limits assumed): as the sequence (Q8NBP7 31-152 partner limits assumed) above

Compound	IC50 ([1]; counterscreen, Example 7) [µM]	IC50 ([2]; Example 7) [µM]	IC50 [1, 4] [µM]	IC50 ([2]; Table 8E, additional compounds) [µM]	IC50 ([3]; Table 8E, additional compounds) [µM]	IC50 [1, 5] [µM]	IC50 [2, 6] [µM]	IC50 [3, 6] [µM]	other results
CC[C@H](C)[C@@H]1NC(=O)[C@H](CCCNC(=N)N)NC(=O)[C@H](CCCCN)NC(=O)[C@H](CC(C)C)NC(=O)[C@H](CC(N)=O)NC(=O)[C@H](Cc2c[nH]c3ccccc23)NC(=O)[C@@H](NC(=O)CNC(=O)[C@H](CO)NC(=O)CNC(=O)CNC(=O)[C@@H](NC(=O)[C@H](Cc2c[nH]c3ccccc23)NC(=O)[C@H](CC(=O)O)NC(=O)[C@H](CC(C)C)NC(=O)[C@H](Cc2ccc(O)cc2)NC(=O)[C@H](CCC(=O)O)NC(=O)[C@H](CCC(=O)O)NC(=O)[C@H](Cc2c[nH]c3ccccc23)NC(=O)[C@H](CO)NC(=O)[C@@H](NC(=O)[C@H](Cc2ccccc2)NC(=O)[C@@H](NC(=O)[C@@H](NC(C)=O)[C@@H](C)O)C(C)C)[C@@H](C)O)C(C)C)CSSC[C@@H](C(N)=O)NC(=O)CNC(=O)[C@H](CCC(N)=O)NC(=O)[C@H](CO)NC(=O)CNC1=O [Compound 13] (Ac-TVFTSWEEYLDWVGGSGCWNLKRIGSQGC-NH2; disulfide 18-29)	> 50	0.001							inhibition in the PCSK9Δhelix/Ab20 binding assay [2]: potent inhibitors; inhibition in the PCSK9/EGF(A) binding assay [3]: potent inhibitors; IC50 ([3]; Example 7): 0.01 µM
CC[C@H](C)[C@H](NC(=O)[C@H](CCCCNC(=N)N)NC(=O)[C@@H](NC(=O)[C@H](CC(C)C)NC(=O)[C@H](CC(N)=O)NC(=O)[C@@H](N)Cc1c[nH]c2ccccc12)C(C)C)C(=O)NCC(N)=O [Compound 236, WNLV(homoR)IG-NH2] (H-WNLV[hArg]IG-NH2)			≥ 50	22	≥ 50				
CCCCC(=O)N[C@@H](Cc1c[nH]c2ccccc12)C(=O)N[C@@H](CC(N)=O)C(=O)N[C@@H](CC(C)C)C(=O)N[C@H](C(=O)N[C@@H](CCCNC(=N)N)C(=O)N[C@H](C(=O)NCC(=O)N[C@@H](CC(C)C)C(=O)NCC(=O)N[C@@H](CCCNC(=N)N)C(N)=O)[C@@H](C)CC)C(C)C [Compound 179] (Pentanoyl-WNLVRIGLGR-NH2)			≥ 50	11	≥ 50				
CC[C@H](C)[C@@H]1NC(=O)[C@H](CCCNC(=N)N)NC(=O)[C@H](CCCCN)NC(=O)[C@H](CC(C)C)NC(=O)[C@H](CC(N)=O)NC(=O)[C@H](Cc2c[nH]c3ccccc23)NC(=O)[C@@H](NC(=O)CCCCCCCNC(=O)[C@@H](NC(=O)[C@H](Cc2c[nH]c3ccccc23)NC(=O)[C@H](CC(=O)O)NC(=O)[C@H](CC(C)C)NC(=O)[C@H](Cc2ccc(O)cc2)NC(=O)[C@H](CCC(=O)O)NC(=O)[C@H](CCC(=O)O)NC(=O)[C@H](Cc2c[nH]c3ccccc23)NC(=O)[C@H](CO)NC(=O)[C@@H](NC(=O)[C@H](Cc2ccccc2)NC(=O)[C@@H](NC(=O)[C@@H](NC(C)=O)[C@@H](C)O)C(C)C)[C@@H](C)O)C(C)C)CSSC[C@@H](C(N)=O)NC(=O)CNC(=O)[C@H](CCC(N)=O)NC(=O)[C@H](CO)NC(=O)CNC1=O [Compound 15]	> 50	0.002							inhibition in the PCSK9Δhelix/Ab20 binding assay [2]: maintained potency; inhibition in the PCSK9/EGF(A) binding assay [3]: maintained potency
CC[C@H](C)[C@@H]1NC(=O)[C@H](CCCNC(=N)N)NC(=O)[C@H](CCC(N)=O)NC(=O)[C@H](CC(C)C)NC(=O)[C@H](CC(N)=O)NC(=O)[C@H](Cc2c[nH]c3ccccc23)NC(=O)[C@@H]2CCCN2C(=O)[C@H](CC(C)C)NC(=O)[C@H](CCCNC(=N)N)NC(=O)[C@@H](NC(C)=O)CSSC[C@@H](C(N)=O)NC(=O)[C@@H]2CCCN2C(=O)[C@H](C)NC(=O)CNC1=O [Compound 69] (Ac-CRLPWNLQRIGAPC-NH2; disulfide 1-14)						> 50	6.64	> 50	
CC[C@H](C)[C@@H]1NC(=O)[C@H](CCCNC(=N)N)NC(=O)[C@H](CCC(N)=O)NC(=O)[C@H](CC(C)C)NC(=O)[C@H](CC(N)=O)NC(=O)[C@H](Cc2c[nH]c3ccccc23)NC(=O)[C@@H]2CCCN2C(=O)[C@H](CC(C)C)NC(=O)[C@H](CCCNC(=N)N)NC(=O)[C@@H](NC(C)=O)CSSC[C@@H](C(N)=O)NC(=O)[C@@H]2CCCN2C(=O)[C@H](CC(C)C)NC(=O)[C@H](C)NC1=O [Compound 70] (Ac-CRLPWNLQRIALPC-NH2; disulfide 1-14)						> 50	7.26	> 50	
Ac-DLMPWNLVRIGALR-NH2 [Compound 56]	> 50	17.1							IC50 ([3]; Example 7): > 50 µM
Ac-DLMPWNLVRIGLL-NH2 [Compound 46]	> 50	14							IC50 ([3]; Example 7): > 50 µM
CCCCC(=O)N[C@@H](Cc1c[nH]c2ccccc12)C(=O)N[C@@H](CC(N)=O)C(=O)N[C@@H](CC(C)C)C(=O)N[C@H](C(=O)N[C@@H](CCCNC(=N)N)C(=O)N[C@H](C(=O)NCC(=O)N[C@@H](CC(C)C)C(=O)N[C@@H](CC(=O)O)C(=O)N[C@@H](CCCNC(=N)N)C(N)=O)[C@@H](C)CC)C(C)C [Compound 178] (Pentanoyl-WNLVRIGLDR-NH2)			≥ 50	18	≥ 50				
CC[C@H](C)[C@@H]1NC(=O)[C@H](CCCNC(=N)N)NC(=O)[C@H](CCC(N)=O)NC(=O)[C@H](CC(C)C)NC(=O)[C@H](CC(N)=O)NC(=O)[C@H](Cc2c[nH]c3ccccc23)NC(=O)[C@@H]2CCCN2C(=O)[C@H](CC(C)C)NC(=O)[C@H](CCCNC(=N)N)NC(=O)[C@@H](NC(C)=O)CSSC[C@@H](C(N)=O)NC(=O)[C@H](C)NC(=O)[C@H](CC(C)C)NC(=O)CNC1=O [Compound 68] (Ac-CRLPWNLQRIGLAC-NH2; disulfide 1-14)						> 50	0.939	> 50	
CCCCC(=O)N[C@@H](Cc1c[nH]c2cc(Cl)ccc12)C(=O)N[C@@H](CC(N)=O)C(=O)N[C@@H](CC(C)C)C(=O)N[C@H](C(=O)N[C@@H](CCCNC(=N)N)C(=O)N[C@H](C(=O)NCC(=O)N[C@@H](CC(C)C)C(=O)N[C@H](C(=O)N[C@@H](CCCNC(=N)N)C(N)=O)[C@@H](C)O)[C@@H](C)CC)C(C)C [Compound 186] (Pentanoyl-[Trp(6-Cl)]NLVRIGLTR-NH2)			46	11	31				
CC[C@H](C)[C@@H]1NC(=O)[C@H](CCCNC(=N)N)NC(=O)[C@H](CCCCN)NC(=O)[C@H](CC(C)C)NC(=O)[C@H](CC(N)=O)NC(=O)[C@H](Cc2c[nH]c3ccccc23)NC(=O)[C@H](CC(C)C)NC(=O)[C@@H](NC(=O)[C@H](Cc2ccccc2)NC(C)=O)CSSC[C@@H](C(=O)N[C@@H](CCC(=O)O)C(=O)N[C@@H](Cc2ccc(O)cc2)C(N)=O)NC(=O)[C@H](CCC(N)=O)NC(=O)[C@H](CO)NC(=O)CNC1=O [Compound 95] (Ac-FCLWNLKRIGSQCEY-NH2; disulfide 2-13)						> 50	12.7	> 50	
CC[C@H](C)[C@@H]1NC(=O)[C@H](CCCNC(=N)N)NC(=O)[C@@H](CCC(N)=O)NC(=O)[C@H](CC(C)C)NC(=O)[C@H](CC(N)=O)NC(=O)[C@H](Cc2c[nH]c3ccccc23)NC(=O)[C@@H]2CCCN2C(=O)[C@H](CC(C)C)NC(=O)[C@H](CCCNC(=N)N)NC(=O)[C@@H](NC(C)=O)CSSC[C@@H](C(N)=O)NC(=O)[C@@H]2CCCN2C(=O)[C@H](CC(C)C)NC(=O)CNC1=O [Compound 103, Ac-CRLPWNLqRIGLPC-NH2] (Ac-CRLPWNL[dQ]RIGLPC-NH2; disulfide 1-14)						> 50	> 50	> 50	
